# Assay results taken from paper PMC6958661, “Regulatory Role of PlaR (YiaJ) for Plant Utilization in Escherichia coli K-12” (Scientific Reports, 2019).
# Target: T1, PlaR (YiaJ) (Escherichia coli, UniProt P37671)
# T1 sequence (P37671 1-282): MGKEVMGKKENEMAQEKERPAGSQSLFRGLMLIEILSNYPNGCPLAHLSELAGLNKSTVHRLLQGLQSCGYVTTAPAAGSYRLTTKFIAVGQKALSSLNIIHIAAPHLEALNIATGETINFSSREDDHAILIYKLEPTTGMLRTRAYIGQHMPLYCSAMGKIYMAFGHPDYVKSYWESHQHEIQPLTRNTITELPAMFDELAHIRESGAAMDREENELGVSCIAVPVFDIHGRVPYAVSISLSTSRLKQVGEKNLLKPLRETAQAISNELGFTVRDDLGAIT
# Experiment: gel shift assay, dissociation of PlaR from yiaK promoter DNA
# Assay type: binding
# Conditions: 2.5 uM PlaR, yiaK promoter probe, 1-25 mM compound, 37 °C, pH 7.8, 150 mM NaCl, 3 mM Mg acetate; effector (inducer)
row,Compound,"gel shift assay, dissociation of PlaR from yiaK promoter DNA"
1,O=C1O[C@H]([C@@H](O)CO)C(O)=C1O [L-ascorbate],Both the metabolites induced a dose-dependent dissociation in vitro of PlaR from the PlaR-yiaK promoter
2,O=C(O)[C@H]1O[C@H](O)[C@H](O)[C@@H](O)[C@H]1O [α-D-galacturonate],Both the metabolites induced a dose-dependent dissociation in vitro of PlaR from the PlaR-yiaK promoter
